# Laboratory results as given in patent US8778915B2, “Method for the treatment of central nervous system cancers and compositions related thereto” (Emory University, priority 2010, dated 2014).
# Assays:
# PC-12 cells = assay: Survival of PC-12 cells treated with cyclodextrin; format: cell-based; settings: 48 h, very high concentration (320 uM)
# Description: PC-12 cells were treated with different concentrations of cyclodextrin for 48 h. The values are expressed as mean±SD of duplicate samples. This experiment was done to answer the question if any compound can kill tumor cells at high doses. B-Cyclodextrin is an inert compound and used as a vehicle for Progesterone.
# [1] = test system: human neuroblastoma xenograft; assay: Mouse xenograft model of human neuroblastoma; format: in vivo, female athymic nude mice; settings: after 8 days of treatment
# Source text: The vehicle group received saline only. Data were normalized to the baseline values (day 1) and expressed as percent change in daily tumor growth. […] The vehicle group received saline only. Values are expressed as mean tumor size for the different animals in each group. The significance of results was set at P<0.05 two-tailed. Values are expressed as % change in Means±SEM of tumor volume in different groups. […] Tumors were allowed to grow to ˜200 to 250 mm^3 and mice were divided into groups. […] This regimen was planned to be continued for up to two weeks to examine maximum tumor burden. All treated animals are being compared to appropriate controls for analysis of rate of daily tumor growth, tumor volume and regression. Toxicity is being assessed daily by survival, activity and body weight.
# [2] = test system: human neuroblastoma (SK-N-AS) cells; assay: MTT cell viability, single 48 h exposure, neuroblastoma cells; format: cell-based; settings: single exposure 48 hours, at 5 μM and 10 μM, P<0.05 compared to control
# Description: Data were evaluated by analysis of variance (ANOVA) followed by Dunnett test for individual comparisons. […] Values were expressed as means±SD of three experiments.
# The human neuroblastoma cells (SK-N-AS) were cultured in a DMEM medium and E18 rat primary cortical neurons were cultured for 8-10 days in Neurobasal medium. […] An MTT reduction assay was used to estimate cell viability.
# [3] = test system: U87MG glioblastoma cell line; assay: Morphology of glioblastoma cells, phase contrast microscope; format: cell-based, human; settings: high concentrations (40, 80 and 160 μM)
# neuroblastoma cells = settings: 10 μM; cited from earlier work
# [4] = test system: human neuroblastoma (SK-N-AS) cells; assay: Cell viability, repeated daily exposure for 3 and 6 days, neuroblastoma cells; format: cell-based; settings: 0.1-160 μM
# Description: Analysis of variance (ANOVA) followed by a Dunnett test was used to compare treatment groups to controls. […] Values were expressed as means±SD of three experiments.
# FIG. 3 show the effects of PROG exposure for 3 and 6 days on the viability of Neuroblastoma cells (SK-N-AS). Cells were exposed to different concentrations of PROG (0.1, 1, 5, 10, 20, 80, 160 μM) daily for 3 days and 6 days. The statistical analysis of data was performed with analysis of variance (ANOVA) followed by Dunnett test to compare several treatment group to a single control group. The significance of results was set at P<0.05. Values are expressed as Means±SD of three experiments. Significant difference *P<0.05 when compared to control.
# [5] = test system: human glioblastoma cell line U87dEGFR; assay: Cell viability, repeated exposure, glioblastoma-2 cells; format: cell-based
# Description: (§1) Cells were exposed to different concentrations of PROG daily for 3 days and 6 days by replacing culture medium containing PROG. The stock solution of PROG was prepared in DMSO (Final concentration: <5 μl/ml medium). Data were analyzed using analysis of variance (ANOVA) followed by Dunnett's test. Values are expressed as Means±SD of two independent experiments with duplicate samples. Significant difference *P<0.05 when compared to control values.
# [6] = test system: human glioblastoma cell line U87MG; assay: Cell viability, repeated exposure, glioblastoma-1 cells; format: cell-based
# Description: as §1
# breast cancer = settings: single injection of depot progesterone prior to breast cancer therapy, over 1000 women, 65 months after diagnosis and treatment; cited from earlier work
# glioblastoma = settings: first study; cited from earlier work
# [7] = repeated exposure 3 and 6 days, high doses
compound,measurement,setting,value
OC[C@H]1O[C@@H]2O[C@H]3[C@H](O)[C@@H](O)[C@@H](O[C@H]4[C@H](O)[C@@H](O)[C@@H](O[C@H]5[C@H](O)[C@@H](O)[C@@H](O[C@H]6[C@H](O)[C@@H](O)[C@@H](O[C@H]7[C@H](O)[C@@H](O)[C@@H](O[C@H]8[C@H](O)[C@@H](O)[C@@H](O[C@H]1[C@H](O)[C@H]2O)O[C@@H]8CO)O[C@@H]7CO)O[C@@H]6CO)O[C@@H]5CO)O[C@@H]4CO)O[C@@H]3CO [B-Cyclodextrin],cell death,PC-12 cells,could not induce cell death
"CC(=O)[C@H]1CC[C@H]2[C@@H]3CCC4=CC(=O)CC[C@]4(C)[C@H]3CC[C@]12C [progesterone, pregn-4-ene-3,20-dione]",reduction of rate of tumor growth compared to saline vehicle,[1]; 50 mg/kg peritumoral injection once daily,~50%
same,reduction of rate of tumor growth compared to saline vehicle,[1]; 100 mg/kg peritumoral injection once daily,~50%
same,cell death (MTT cell viability),[2],significant cell death
same,changes in cell morphology,[3],"lose their original shape, become detached from the surface, and eventually die"
same,cell viability,neuroblastoma cells,significant decrease in cell viability
same,cell death,[4]; daily exposure for 3 days,significant (P<0.05) cell death in a concentration dependant manner
same,cell death,"[4]; daily exposure for 6 days, concentration dependant",cell death (P<0.05) was observed
same,effectiveness of six days versus 3 days of treatment,[5]; repeated exposure,more effective than 3 days
same,cell viability,[5]; [7],killed both glioblastoma cell lines in a dose dependant manner
same,effectiveness of six days versus 3 days of treatment,[6]; repeated exposure,more effective than 3 days
same,cell viability,[6]; [7],killed both glioblastoma cell lines in a dose dependant manner
same,reduction of mortality,breast cancer,more than 35%
"Avastin: Avastin (bevacizumab), FDA approved to treat glioblastoma at progression after standard therapy",patients who survived for at least 6 months without disease progressing,glioblastoma,43%
same,patients who survived for at least one year,glioblastoma,38%
same,patients with tumor shrinkage,glioblastoma,28%
